Data: patent publication US20220105157A1, “Compositions and Methods for Promoting Angiogenesis in the Eye” (The Regents of the University of California, priority 2019, published 2022)

Assays:
[1] = system: phosphorylation of STAT3, ERK and AKT in BAE cells; assay: Western blotting of LIF signaling in BAE cells; assay type: cell-based, bovine; conditions: LIF treatment for 15 minutes
Description: BCE and BAE cells were cultured in growth medium overnight. Growth medium was removed and then cells were washed twice with PBS. Recombinant human LIF was added to cells for 15 minutes, following 3-hour incubation in the following medium: DMEM-low glucose supplemented with 10% BCS, 2 mM glutamine and antibiotics for BCE cells, and DMEM-low glucose supplemented with 1% BCS and antibiotics for BAE cells. […] Cells were then lysed with RIPA lysis buffer (Life Technologies, CAT #89901) plus protease and phosphatase inhibitor cocktail (ThermoFisher Scientific CAT #78440). Protein concentrations in cell lysates were measured with the BCA assay (ThermoFisher Scientific CAT #23227). Equal amount of proteins were subjected to electrophoresis in NuPAGE 4-12% Bis-Tris gels (ThermoFisher Scientific, CAT #NW04125BOX) and then transferred onto PVDF membranes. Membranes were blocked with 5% non-fat milk in TBST at room temperature for 1 hour, incubated with primary antibodies indicated below in TBST containing 0.5% non-fat milk at 4° C. overnight then with secondary HRP-conjugated antibodies (1:2000, GE Healthcare) at room temperature for 1 h. Signals were developed with SuperSignal™ West Pico PLUS Chemiluminescent Substrate (ThermoFisher Scientific). Primary antibodies used: anti-phospho-STAT3 (Cell Signaling, CAT #9131, 1:3000), anti-STAT3 (Cell Signaling, CAT #4904, 1:3000), anti-phospho-ERK (Cell Signaling, CAT #4376, 1:5000), anti-ERK (Cell Signaling, CAT #4695, 1:5000), anti-phospho-AKT Ser473 (Cell Signaling, CAT #4060, 1:2000), anti-AKT (Cell Signaling, CAT #4691, 1:2000) and HRP-conjugated anti-beta-actin (Sigma, CAT #AC-15, 1; 10000).

[2] = system: choroid capillaries of NaIO3-treated mice; assay: Sodium iodate (NaIO3) model, choroid capillary recovery; assay type: in vivo, mouse; conditions: NaIO3 20 mg/kg i.v.; intravitreal LIF 50 ng, CT-1 different doses, OSM 10 ng; OCT-A
Description: Eight-week-old C57BL/6J mice were anesthetized with ketamine/xylazine cocktail. Sterilized NaIO3 was administered as a single intravenous injection (20 mg/kg body weight) (28) (29). Control mice were injected with PBS. PBS, LIF (50 ng), CT-1 (different doses) or OSM (10 ng) was injected intravitreally in five-mice groups. Five, seven and nine days after injection, choroid capillaries were monitored by OCT-A system. 9 days after injection, mice were killed and eyes were harvested for H&E and immunofluorescent staining. Avascular area in choroid capillaries was analyzed using ImageJ.

[3] = system: human retinal microvascular endothelial (HRME) cells; assay: HRME endothelial cell proliferation assay (alamar blue); assay type: cell-based
Description: (§1) The bovine endothelial proliferation assays were performed essentially as previously described (63, 64). BCE (1×10^3 cells/well) or BRE (5×10^2 cells/well) cells were seeded in 96-well plates in the culture medium (DMEM-low glucose supplemented with 10% BCS, 2 mM glutamine and antibiotics) plus testing materials with a total volume of 200 μl per well. BAE cells were plated in 96-well plates at a density of 2×10^3 cells in the culture medium (DMEM-low glucose supplemented with 1% BCS and antibiotics) plus testing material with a total volume of 200 μl per well. HRME cells were seeded at a density of 1×10^3 cells/well in gelatin-coated 96-well plates in assay medium (DMEM-low glucose supplemented with 20% FBS and antibiotics) plus testing materials to make a total volume 200 μl per well. For assays involving antibodies or small-molecule inhibitors, inhibitors or vehicle controls were first added and then test materials were added one hour later. After 6 days (unless otherwise specified), cells were incubated with alamar blue for 4 h. Fluorescence was measured at 530 nm excitation wavelength and 590 nm emission wavelength. Each experiment was carried out in duplicate/triplicate and repeated at least three times.

[4] = system: bovine retinal endothelial (BRE) cells; assay: BRE endothelial cell proliferation assay (alamar blue); assay type: cell-based
Description: as §1

[5] = system: mouse choroidal explants; assay: Mouse choroidal explant assay (ex vivo sprouting); assay type: cell-based; conditions: LIF 10 ng/ml, compared with control
Description: In a 48-well plate, 60 μL of growth factor-reduced basement membrane extract (GFR-BME) (Corning, CAT #354230) was added to each well and allowed to solidify at 37° C. for 20 minutes. A dice of the peripheral choroid-scleral complex (approximately 1 mm×1 mm), dissected from male C57BL/6J mice (age P20), was added to the center of each well as previously described (23). A top layer of 60 μL GFR-BME was added to each well, followed by incubation at 37° C. for 30 minutes. Upon adding 500 μL of endothelial cell growth basal medium EBM-2 (Lonza, CAT #CC3156) supplemented with 2% FBS and antibiotics, endogenous VEGF activity of choroid explants was blunted by 5 μg/ml of anti-VEGF Mab B20-4.1.1. After 90 minutes of incubation with the antibody, 10 ng/ml of LIF or PBS control was added in the test wells. Tissues were incubated in standard cell culture conditions with 5% CO2 and fresh media were changed every 48 hours. Phase contrast Z-stack images of each explants were taken on day 5 using a Keyence microscope. Vessel sprouting areas were quantified using ImageJ software. The experiment was repeated three times and data were obtained by analyzing 5 replicates per each condition each time.

LIF: recombinant human leukemia inhibitory factor, a member of the IL-6 family of cytokines
phosphorylation of AKT [1]: led to phosphorylation
phosphorylation of ERK (MAPK) [1]: led to phosphorylation
phosphorylation of STAT3 [1]: led to phosphorylation
avascular areas in choroid compared to PBS group [2]: reduced avascular areas
effect on VEGF-stimulated growth of human retinal microvascular endothelial cells ([3]; LIF added to VEGF): significantly enhanced VEGF-stimulated growth
mitogenic response in human retinal microvascular endothelial cells ([3]; LIF alone): did not elicit a strong mitogenic response
mitogenic activity on BRE cells [4]: exerted mitogenic activity
microvascular outgrowth from the choroidal explant into the matrigel [5]: significantly enhanced
